Experimental data reported in patent US20160317503A1, “ZOLMITRIPTAN POWDERS FOR PULMONARY DELIVERY” (Civitas Therapeutics, Inc., priority 2015, published 2016).
One block for each compound: values may come before it.

What was measured:
[1] = DSC / modulated DSC thermal events (Tg, Low T1, Low T2, recrystallization, melt); type: physicochemical
Description: For comparative purposes, a 100% spray-dried zolmitriptan powder was prepared and analyzed via XRPD and DSC to allow for a comparison to the formulations from Example 2 that were placed on stability and to facilitate an interpretation of the resultant thermal data. Initially, a lot of amorphous 100% zolmitriptan was produced via a Buchi 290 Spray-Drying System (spray drying parameters: solids concentration=2 g/L, inlet temperature=90° C., outlet temperature=45° C., drying gas flowrate=20 kg/hr, atomization gas flowrate=10 g/min, aqueous flowrate=4 ml/Min, organic phase flowrate=6 ml/min, spray dryer pressure=−50 mbar) and analyzed via modulated DSC (TA Instruments DSC Q2000 Tzero System, MDSC Parameters: hermetically sealed double lid pan configuration, equilibrate at 0° C. for 5 minutes, ramp up to maximum of 160° C. at 2.0° C./min, modulate+/−1.00° C. every 60 seconds) to determine its glass transition temperature.

[2] = s.c.; cited from earlier work

Tm (° C.) ([1]; 100% zolmitriptan study, t = 0): 136.0 °C
ΔH ([1]; 100% zolmitriptan study, t = 0): 135.3 J/g
Tm (° C.) ([1]; 100% zolmitriptan study, t = 0, listed as Zolmitriptan raw material): approximately 136 °C
Compound: CN(C)CCc1c[nH]c2ccc(C[C@H]3COC(=O)N3)cc12 [Raw material, Zolmitriptan]

Compound: CNS(=O)(=O)Cc1ccc2[nH]cc(CCN(C)C)c2c1 [sumatriptan]
reported half-lives [2]: ~2 h

Compound: CN(C)CCc1c[nH]c2ccc(C[C@H]3COC(=O)N3)cc12 [Zolmitriptan]
reported half-lives [2]: ~2 h

glass transition temperature (Tg) ([1]; modulated DSC, amorphous 100% zolmitriptan, Buchi 290): approximately 33 °C
Compound: CN(C)CCc1c[nH]c2ccc(C[C@H]3COC(=O)N3)cc12 [pure amorphous zolmitriptan, Zolmitriptan]
